Reference: ChEMBL document CHEMBL1201862, “PubChem BioAssay data set” (2004)
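These data come from cells grown in 96-well plates and exposed to compound for 48 hours at five concentrations. GI50: concentration for 50% inhibition of growth.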 The source made the active and inactive calls. No stated cut-off is given here; in the data, active = GI50 up to about 1.1 µM and inactive = higher.

Assays:
Experiment in all cases: growth of human tumour cells (NCI), 48 h
SF-539 = system: SF-539
KM12 = system: KM12
SNB-75 = system: SNB-75
U-251 = system: U-251
A498 = system: A498
OVCAR-3 = system: OVCAR-3
MOLT-4 = system: MOLT-4
HL-60 = system: HL-60
HT-29 = system: HT-29
SF-268 = system: SF-268
SNB-19 = system: SNB-19
IGROV-1 = system: IGROV-1
CCRF-CEM = system: CCRF-CEM
SF-295 = system: SF-295
EKVX = system: EKVX
HOP-92 = system: HOP-92

Measured: GI50

CC(Oc1ccc(OCC2CCCCC2)cc1)C(=O)NCCO (stereo not given)
inactive: SF-539 > 100 µM | KM12 > 100 µM | SNB-75 > 100 µM | U-251 > 100 µM | A498 48 µM | OVCAR-3 64.9 µM | MOLT-4 > 100 µM | HL-60 > 100 µM | HT-29 99.3 µM | SF-268 > 100 µM | SNB-19 > 100 µM | IGROV-1 > 100 µM | CCRF-CEM > 100 µM | SF-295 23.4 µM

COc1cc(C(=O)Nc2cccc3ccccc23)c(Br)c(OC)c1OC
inactive: SF-539 > 100 µM | EKVX > 100 µM | KM12 70.3 µM | SNB-75 62.2 µM | U-251 > 100 µM | OVCAR-3 > 100 µM | MOLT-4 39.7 µM | HL-60 24.2 µM | HT-29 > 100 µM | SF-268 97.1 µM | SNB-19 > 100 µM | IGROV-1 81.8 µM | CCRF-CEM 33.9 µM | HOP-92 42.2 µM | SF-295 > 100 µM

CSc1nc2nc(C(O)C(O)C(O)CO)cnc2c(=O)[nH]1 (stereo not given)
inactive: SF-539 > 100 µM | EKVX > 100 µM | KM12 > 100 µM | SNB-75 > 100 µM | U-251 > 100 µM | A498 > 100 µM | OVCAR-3 34 µM | MOLT-4 > 100 µM | HL-60 > 100 µM | HT-29 > 100 µM | SF-268 > 100 µM | SNB-19 > 100 µM | IGROV-1 > 100 µM | CCRF-CEM > 100 µM | SF-295 > 100 µM

Cc1ccc(C2=C(c3ccccc3)C(=O)C(c3ccccc3)=C2c2ccc(C)cc2)cc1
inactive: SF-539 18.3 µM | EKVX 38 µM | KM12 36.5 µM | SNB-75 87.3 µM | U-251 25.1 µM | A498 > 100 µM | MOLT-4 14.5 µM | HT-29 33.5 µM | SF-268 32.1 µM | SNB-19 54.3 µM | IGROV-1 > 100 µM | CCRF-CEM 17.2 µM | SF-295 18.4 µM

COC(=O)c1cc(C)c(C)c2c1NC(=O)CNC2=O
inactive: SF-539 > 100 µM | EKVX > 100 µM | KM12 > 100 µM | SNB-75 > 100 µM | U-251 > 100 µM | A498 > 100 µM | OVCAR-3 > 100 µM | MOLT-4 > 100 µM | HL-60 > 100 µM | HT-29 > 100 µM | IGROV-1 > 100 µM | CCRF-CEM > 100 µM | SF-295 > 100 µM
